Legend:
[1] = biological target: T1, guinea pig liver-originated transglutaminase 2 (Cavia cutleri, UniProt P08587); assay: In vitro transglutaminase 2 assay (1), [1,4-14C] putrescine incorporation into succinylated casein; assay type: biochemical
T1 construct: 1 mU of guinea pig liver-originated transglutaminase 2 (Sigma, St. Louis, MO, USA); purchased Sigma; host or cells: guinea pig liver
T1 sequence (P08587 1-690): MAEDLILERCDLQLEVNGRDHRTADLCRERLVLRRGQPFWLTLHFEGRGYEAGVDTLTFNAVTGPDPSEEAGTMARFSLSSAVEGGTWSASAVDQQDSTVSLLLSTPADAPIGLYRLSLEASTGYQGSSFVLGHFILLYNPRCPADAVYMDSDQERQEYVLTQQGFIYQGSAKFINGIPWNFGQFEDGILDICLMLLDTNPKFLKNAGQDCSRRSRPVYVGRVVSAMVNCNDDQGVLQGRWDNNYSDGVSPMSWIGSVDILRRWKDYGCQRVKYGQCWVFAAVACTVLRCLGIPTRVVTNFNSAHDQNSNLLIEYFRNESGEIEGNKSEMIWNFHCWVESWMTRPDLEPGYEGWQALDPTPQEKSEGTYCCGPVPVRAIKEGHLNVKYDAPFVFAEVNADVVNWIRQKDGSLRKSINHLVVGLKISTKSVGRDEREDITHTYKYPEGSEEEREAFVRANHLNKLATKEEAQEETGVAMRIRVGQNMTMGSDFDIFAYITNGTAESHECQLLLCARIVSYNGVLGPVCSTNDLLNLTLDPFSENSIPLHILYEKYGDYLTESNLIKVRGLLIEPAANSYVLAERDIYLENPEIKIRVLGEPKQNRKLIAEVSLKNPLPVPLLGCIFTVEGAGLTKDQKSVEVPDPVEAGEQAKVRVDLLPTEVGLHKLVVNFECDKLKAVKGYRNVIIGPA
Protocol: Incorporation of [1,4-14C] putrescine into succinylated casein was measured to determine the inhibitory effect of each compound on the activity of transglutaminase 2 (TGase 2). 1 mU of guinea pig liver-originated transglutaminase 2 (Sigma, St. Louis, MO, USA) was preincubated with various concentrations of GK13 or GK921 in a 0.1 mL reaction buffer with or without 10 mM CaCl2 for 10 minutes, and 0.4 mL of a substrate solution containing 2% (w/v) succinylated casein and 100 nCi of [1,4-14C] putrescine. After incubation at 37° C. for 1 hour, 4 mL of cold (4° C.) 7.5% (w/v) trichloroacetic acid (TCA) was added to terminate the reaction. The TCA-insoluble precipitate was recovered with a GF/A-grade glass filter (Millipore, Billerica, MA, USA), washed with cold 5% (w/v) TCA, dried, and assessed with a scintillation counter (Beckman Coulter, Brea, CA, USA) to evaluate radiolabel binding. Transglutaminase 2 which was pre-incubated only with a buffer was used as a positive control. The scintillation counts were compared between the example and the positive control, and IC50 values were determined through the logistic linear regression method. The presented data were the mean values of three independent experiments. In this experimental example and the following experimental example, Streptonigrin (described as KN383 in each figure of the drawing), which is an existing transglutaminase 2 inhibitor, was used as a positive control.

[2] = tested on: ACHN cancer cell population; assay: Sulforhodamine B (SRB) assay; assay type: cell-based, Human
Protocol: Cells (10,000 cells/well, 100 μL) were incubated in a 96-well microtiter plate. After 24 hours of the incubation, drug (100 μL) was added to each of the wells, and the culture was further incubated at 37° C. for 48 hours. The cells were then fixed in TCA (50 μL per well). The plates were incubated at 4° C. for a minimum of 1 hour or a maximum of 3 hours. The liquid was removed from the plates, and then the plate was washed five times with water and then dried at room temperature (RT) for about 12-24 hours. The fixed cells were stained with 100 μL SRB for 5 minutes at room temperature. After the staining, the plate was washed three times with 1% (w/v) glacial acetic acid and dried at room temperature for about 12-24 hours. Next, the SRB was then dissolved in 10 mM Trizma base, and the absorbance was measured at 515 nm. The effect of the drug was expressed as GI50 (50% growth inhibition).
Specifically, each of the LDD3732, LDD3922, and LDD3959 in concentrations of 10^−9, 10^−8, 10^−7, 10^−6, and 10^−5 M were tested, and the percentage decrease in the control value of SRB was measured using an ACHN cancer cell population.

[3] = tested on: MDA-MB231 breast cancer cells; assay: Cell viability in breast cancer cell lines according to treatment time; assay type: cell-based; conditions: MDA-MB231, 24, 48 and 72 hours
Protocol: Breast cancer cells (50,000 cells/well, 100 μl) were cultured in 96-well microplates, and after 24 hours, LDD3959 was added to each well in various concentrations, using a serum-free cell culture medium. In each well, a reaction was performed at 37° C. in the presence of 5% CO2 for 2 hours.
Next, the existing culture medium was replaced with a culture medium containing 10% FSB, and 24, 48, and 72 hours of reactions were performed. After the completion of each reaction, the exiting culture medium was removed, a culture medium containing a water soluble tetrazolium (WST) salt was added, the plate was allowed to react at 37° C. in the presence of 5% CO2 for a duration in the range of 1 hour to 3 hours, and the absorbance was measured at 450 nm.

[4] = Toxicity by single oral administration; assay type: in vivo, ICR mice; conditions: 500 to 2000 mg/kg
Protocol: LDD3959 was orally administered once for each concentration in the range of 500 to 2000 mg/kg, and adverse events (body weight changes, feed intake changes, general appearance changes) were checked for 2 weeks. After 2 weeks of administration, the mice were sacrificed. Then, the mice underwent hematological examination and measurement of weight change of each organ thereof. In addition, the same experiment was performed on five ICR female mice and five ICR male mice to identify gender-dependent differences.

O=C1C(Cl)=C(Cl)C(=O)c2[nH]c(-c3ccc(Br)c(F)c3)nc21 [LDD3959, 2-(4-bromo-3-fluorophenyl)-5,6-dichloro-1H-benzo[d]imidazole-4,7-dione]
mean value of the 2 μM LDD3959 ([1]; 2 μM, negative control 248.5, control 3606.5, standard deviation 0.01): 0.09
TGase2 enzyme activity inhibitory effect compared with streptonigrin (KN383, positive control) ([1]; same dose (2 μM)): two-fold or greater stronger TGase2 enzyme activity inhibitory effects than the control
GI50 ([2]; Homo sapiens, 48 hours, read-out: GI50 (50% growth inhibition)): 2500 nM
SRB measurement (percentage decrease in the control value of SRB) ([2]; concentration of 10^−5 M, 48 hours): −11.87
decrease in cell counts ([2]; concentrations 10^−6 M or lower): no significant decrease in cell counts
apoptosis level according to time [3]: exhibited a low apoptosis level at the initial stage, but the apoptosis level increased
deaths ([4]; 2 weeks, female and male ICR mice): no deaths of the subjects occurred
adverse responses in blood ([4]; after 2 weeks): no specific adverse responses occurred in blood
